Assay results published in patent US20210252045A1, “Method for inactivating and removing disease-related levels of sulfane sulfur from affected biological tissues with special relevance to Covid-19 virus infection” (priority 2019, published 2021).

Columns and labels:
[1] = system: Rhinovirus of the common cold; experiment: Ingesting sulfite at first symptoms of the common cold (inventor's self-administration); type: in vivo; settings: oral, 250 mg every 4 hours for 24 hours, started at first symptoms (within 48 hours); the inventor themself
Experimental: It appears to be important that this be started within 48 hours of first appearance of the symptoms although data is lacking on using the agent later in the course of the infection. The stated quantities are effective but might be refined. The total quantity in the above example is equivalent to drinking 4 bottles of some wines or ingesting 500 gm of certain dried fruits. Application of this example to Covid 19 would be a first TREATMENT for this disease.

[2] = sulfur dioxide gas in water at pH above 3; cited from earlier work

SMILES | course of common cold symptoms after ingestion [1] | pKa2 [2]
O=S([O-])S(=O)(=O)[O-].[K+].[K+] [K. metabisulfite] | symptoms clear without progressing to a full cold | 
O=S(O)O [sulfurous acid] |  | ~7
